Laboratory results reported in patent publication US5801152A, “Antracycline disaccharides, process for their preparation, and pharmaceutical compositions containing them” (A. Menarini Industrie Farmaceutiche Riunite S.r.l., priority 1993, dated 1998).
In brackets after ≈: the same amount, converted by molar mass. Structures can show the parent of a compound that is named as a salt. Where two headings read alike, the source gives them in different places.

What was measured:
LOVO (colon) cells = test: Cytotoxic activity in vitro, MTT assay, LOVO (colon); format: cell-based; conditions: Homo sapiens
Experimental: (§1) was tested, in comparison with doxorubicin, against a variety of human tumors of different histotypes including ovarian carcinoma, lung cancer , breast cancer, cervical carcinoma, colon cancer.
(§2) Cell survival, following test compound exposure, was evaluated by the growth inhibition test, with the exception of small cell lung cancer cell lines (SCLC). Cells in the logarithmic phase of growth were harvested and placed into 6-well. Twenty-four h after seeding, cells were exposed to test compounds for different times. After replacement with drug-free medium, cells were harvested and counted 72 h following compound exposure. In the case of SCLC, MCF-7 and LOVO, the MTT assay has been used and the colorimetric evaluation of survival was performed at the end of the incubation time (24 or 96 h). The results obtained from cytotoxicity experiments are expressed as IC50 (i.e., concentration required for 50% inhibition of cell growth).
(§3) The test compounds were dissolved in distilled water and then diluted in culture medium.

MCF-7 (breast) cells = test: Cytotoxic activity in vitro, MTT assay, MCF-7 (breast); format: cell-based; conditions: Homo sapiens
Experimental: as §1, §2, §3

A431 (cervix) cells = test: Cytotoxic activity in vitro, growth inhibition test, A431 (cervix); format: cell-based; conditions: Homo sapiens
Experimental: as §1, §2, §3

A2780 (ovarian) cells = test: Cytotoxic activity in vitro, growth inhibition test, A2780 (ovarian); format: cell-based; conditions: Homo sapiens
Experimental: as §1, §2, §3

[1] = system: H-460 (non-small cell lung cancer) cells; test: Cytotoxic activity in vitro, growth inhibition test, H-460 (non-small cell lung cancer); format: cell-based; conditions: Homo sapiens
Experimental: as §1, §2, §3

[2] = system: POVD (small cell lung cancer) cells; test: Cytotoxic activity in vitro, MTT assay, POVD (small cell lung cancer); format: cell-based; conditions: Homo sapiens
Experimental: as §1, §2, §3

[3] = system: human ovarian carcinoma A2780; test: Effect against human ovarian carcinoma A2780 (in vivo), athymic mice; parameters: species or system human tumor in athymic mice; conditions: for toxicity deaths / tumor inhibition (Tumor Weight Inhibition %, TWI%): i.v., optimal dose: DXR 7 mg/Kg, IIa 8.5 mg/Kg (days 11, 18, 25), IIc 5 mg/Kg (days 11, 15, 18, 21, 25); for tumor inhibition (Tumor Weight Inhibition %, TWI%): determined 7-10 days after last treatment; for antitumor activity compared with doxorubicin (in words): against A2780 ovarian carcinoma
Experimental: (§4) For in vivo studies athymic mice were injected subcutaneous with tumor fragments in both flanks. Growth of tumors was followed by twice weekly caliper measurement of length and width. Tumor weight was calculated using the formula: mg=volume in mm^3 =width^2 ×length/2 (considering density=1).
(§5) The test compounds were delivered, at the optimal doses and schedules, intravenously (i.v.) to tumor-bearing mice starting at different times in the different tumors using (see experiments for details). The effects achieved by the treatments were expressed as Tumor Weight Inhibition % (TWI%) in treated versus control mice, determined 7-10 days after the last drug treatment.

[4] = system: human small cell lung carcinoma POVD; test: Effect against human small cell lung carcinoma POVD (in vivo), athymic mice; parameters: species or system human tumor in athymic mice; conditions: for antitumor activity (in words): SCLC tumor POVD; for toxicity deaths / tumor inhibition (Tumor Weight Inhibition %, TWI%): i.v., optimal dose: DXR 7 mg/Kg, IIa 8.5 mg/Kg (days 10, 17, 24), IIc 5 mg/Kg (days 10, 14, 17, 21, 24); for tumor inhibition (Tumor Weight Inhibition %, TWI%): determined 7-10 days after last treatment
Experimental: as §4, §5

[5] = LOVO (colon), drug exposure 24 h, read-out: IC50
[6] = MCF7, MCF-7 (breast), drug exposure 24 h, read-out: IC50
[7] = A-431, A431 (cervix), drug exposure 24 h, read-out: IC50
[8] = A2780 (ovarian), drug exposure 24 h, read-out: IC50
[9] = NCI-H460, H-460 (non-small cell lung cancer), drug exposure 24 h, read-out: IC50
[10] = POVD (small cell lung cancer), drug exposure 96 h, read-out: IC50

| SMILES | IC50 (LOVO (colon) cells; LoVo, 24 h) [ng/mL] | IC50 (MCF-7 (breast) cells; MCF7, 24 h) [µg/mL] | IC50 (A431 (cervix) cells; A-431, 24 h) [µg/mL] | IC50 (A2780 (ovarian) cells; A2780, 24 h) [ng/mL] | IC50 ([1]; NCI-H460, 24 h) [µg/mL] | IC50 ([2]; 96 h) [µg/mL] | toxicity deaths [3] | tumor inhibition (Tumor Weight Inhibition %, TWI%) [3] [%] | antitumor activity (in words) [4] | toxicity deaths [4] | tumor inhibition (Tumor Weight Inhibition %, TWI%) [4] [%] | IC50 (LOVO (colon) cells; [5]) [ng/mL] | IC50 (MCF-7 (breast) cells; [6]) [µg/mL] | IC50 (A431 (cervix) cells; [7]) [µg/mL] | IC50 (A2780 (ovarian) cells; [8]) [ng/mL] | IC50 [1, 9] [µg/mL] | IC50 [2, 10] [µg/mL] | antitumor activity compared with doxorubicin (in words) [3] |
| --- | --- | --- | --- | --- | --- | --- | --- | --- | --- | --- | --- | --- | --- | --- | --- | --- | --- | --- |
| COc1cccc2c1C(=O)c1c(O)c3c(c(O)c1C2=O)C[C@@](O)(C(=O)CO)C[C@@H]3O[C@H]1C[C@H](N)[C@H](O)[C@H](C)O1 [DXR, doxorubicin, reference compound] | 10 (≈ 0.0184 µM) | 0.01 (≈ 0.0184 µM) | 0.036 (≈ 0.0662 µM) | 30 (≈ 0.0552 µM) | 0.02 (≈ 0.0368 µM) | 0.034 (≈ 0.0626 µM) | 0/5 | 68 | refractory | 0/5 | 44 | – | – | – | – | – | – | – |
| CC(=O)[C@]1(O)Cc2c(O)c3c(c(O)c2[C@@H](O[C@H]2C[C@H](O)[C@H](O[C@H]4C[C@H](N)[C@H](O)[C@H](C)O4)[C@H](C)O2)C1)C(=O)c1ccccc1C3=O [IIa, 7-0-[2,6-dideoxy-4-0-(2,3,6-trideoxy-3-amino-a-L-lyxo-exopyranosyl)-a-L-lyxo-exopyranosyl]-4-demethoxy-daunorubicinone hydrochloride] | – | – | – | – | – | – | 0/5 | 75 | very high antitumor activity | 0/5 | 80 | 6.5 | 0.01 | 0.012 | 1 | 0.015 | 0.015 | at least the same effectiveness than doxorubicin |
| C[C@@H]1O[C@@H](O[C@@H]2[C@H](C)O[C@@H](O[C@H]3C[C@](O)(C(=O)CO)Cc4c(O)c5c(c(O)c43)C(=O)c3ccccc3C5=O)C[C@@H]2O)C[C@H](O)[C@@H]1O [IIb, 7-0-[2,6-dideoxy-4-0-(2,6-dideoxy-a-L-lyxo-exopyranosyl)-a-L-lyxo-exopyranosyl]-4-demethoxy-doxorubicinone hydrochloride] | – | – | – | – | – | – | – | – | – | – | – | 8.5 | 0.015 | 0.026 | 10 | 0.018 | 0.02 | – |
| C[C@@H]1O[C@@H](O[C@@H]2[C@H](C)O[C@@H](O[C@H]3C[C@](O)(C(=O)CO)Cc4c(O)c5c(c(O)c43)C(=O)c3ccccc3C5=O)C[C@@H]2O)C[C@H](N)[C@@H]1O [IIc, 7-0-[2,6-dideoxy-4-0-(2,3,6-trideoxy-3amino-a-L-lyxo-exopyranosyl)-a-L-lyxo-exopyranosyl]-4-demethoxy-doxorubicinone hydrochloride] | – | – | – | – | – | – | 0/5 | 99 | very high antitumor activity | 0/5 | 91 | 10 | 0.0056 | 0.016 | 5 | 0.01 | 0.011 | antitumor activity greatly superior to that of the parent compund |
